Test results reported in ChEMBL document CHEMBL3046079, “Synthesis, herbicidal activity, and mode of action of IR 5790” (J Agric Food Chem, 2001).
Values after ≈ are worked out from the molar mass of the structure shown.

Experiments:
[1] = Solubility of the compound in organis solvent; format: physicochemical
[2] = Aqueous solubility of the compound; format: physicochemical; settings: water
[3] = molecular target: T1, Putative protoporphyrinogen IX oxidase (Cucumis sativus) (UniProt C6L817); assay: Inhibition of protoporphyrin oxidase in Cucumis sativus (cucumber) cotyledon disc assessed as increase in extraplastidic protoporphyrin 9 accumulation at 100 uM incubated in dim light for 2 hr by HPLC analysis relative to control
T1 sequence (whole entry): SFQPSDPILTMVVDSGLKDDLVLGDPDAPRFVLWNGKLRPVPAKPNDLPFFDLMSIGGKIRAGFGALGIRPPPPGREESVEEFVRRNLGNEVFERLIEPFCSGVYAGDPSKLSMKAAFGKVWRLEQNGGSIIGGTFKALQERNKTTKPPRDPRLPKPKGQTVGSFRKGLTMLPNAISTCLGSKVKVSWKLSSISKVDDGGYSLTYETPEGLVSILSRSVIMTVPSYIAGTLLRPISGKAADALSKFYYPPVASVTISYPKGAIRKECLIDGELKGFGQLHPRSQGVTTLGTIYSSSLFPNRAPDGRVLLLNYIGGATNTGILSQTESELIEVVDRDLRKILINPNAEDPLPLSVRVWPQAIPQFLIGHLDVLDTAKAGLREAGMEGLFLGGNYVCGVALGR

[4] = molecular target: T1, Putative protoporphyrinogen IX oxidase (Cucumis sativus); assay: Inhibition of protoporphyrin oxidase in Cucumis sativus (cucumber) cotyledon disc assessed as increase in extraplastidic protoporphyrin 9 accumulation at 10 uM incubated in dim light for 2 hr by HPLC analysis relative to control

Work on `C#CCOc1cc(-n2nc(C(C)(C)C)oc2=O)c(Cl)cc1Cl` [OXADIARGYL] yielded a solubility [1] greater than 250000 µg/mL and a solubility [2] of 0.37 µg/mL (≈ 1.08 µM).
Work on `COC(=O)c1cc(Oc2ccc(C(F)(F)F)cc2Cl)ccc1[N+](=O)[O-]` yielded a fold change (FC) [3] of 390 and a fold change (FC) [4] of 369.
In the case of `CC(C)Oc1cc(-n2nc(C(C)(C)C)oc2=O)c(Cl)cc1Cl` [OXADIAZON], the solubility [1] is reported as greater than 250000 µg/mL and the solubility [2] is reported as 0.7 µg/mL (≈ 2.03 µM).
